pIC50: −log10 of the molar value. Marks after values point to notes of the source that are not given here.
Assays:
[1] = system: human serum protein α1-acid glycoprotein (AAG); design: method as in PMID 11230495; conditions: cited from earlier work
CYP3A4/5 = conditions: in vitro; read-out: IC50, CYP3A4/5 activity (midazolam 1′-hydroxylation); cited from earlier work
[2] = Midostaurin PK when administered with rifampicin; conditions: for AUC0–inf, adjusted geometric mean / AUC0–last, adjusted geometric mean / C max, adjusted geometric mean / t 1/2, adjusted geometric mean / t max, median: plasma, n = 20
Protocol: These endogenous molecules served as exploratory biomarkers for CYP3A4 activity in vivo [21, 22].
A point estimate and the corresponding 90 % CI for the treatment effect (test vs reference) were calculated. These were anti-logged to obtain the GMR and respective 90 % CI. […] The median difference was estimated with the Hodges–Lehmann estimator and its respective exact two-sided 90 % CI. All formal comparative statistical analyses were performed using SAS software.
(§1) The concentration of ketoconazole in plasma was assessed using a validated LC–MS/MS assay with an LLOQ of 50.0 ng/mL (WuXi Pharmatech Co, Ltd, China). The concentration of rifampicin in plasma was measured using a validated LC–MS/MS assay with an LLOQ of 5.0 ng/mL (SGS, Cephac Europe, SAS). Plasma concentrations of midazolam and its metabolite 1′-hydroxymidazolam, which is generated by CYP3A4 and CYP3A5 in humans, were measured using a validated LC–MS/MS assay with an LLOQ of ≈0.100 ng/mL (SGS, Cephac Europe, SAS). The plasma concentration of 4β-hydroxycholesterol was measured using a validated LC–MS/MS assay with an LLOQ of 3.0 ng/mL (SGS, Cephac Europe, SAS). The concentrations of 6β-hydroxycortisol and cortisol in urine were determined using validated LC–MS/MS assays with an LLOQ of 10.0 ng/mL for 6β-hydroxycortisol and 1.0 ng/mL for cortisol. The ratio of 6β-hydroxycortisol to cortisol was subsequently calculated (SGS, Cephac Europe, SAS). See Supplementary Table 2 for detailed bioanalytical methods for all 3 studies.

[3] = Midostaurin PK when administered with ketoconazole
Protocol: According to the US Food and Drug Administration, ketoconazole 400 mg once daily is the recommended dose to evaluate DDIs involving CYP3A4 inhibition. [drawing 1]
Adverse events (AEs) were recorded during the study and up to 1 month (28 days) after the end of study. Volunteers remained at the clinic until AEs were common toxicity criteria (CTC) grade ≤1.
A point estimate and the corresponding 90 % CI for the treatment effect were calculated for the test treatment compared with the reference. These were anti-logged to obtain the point estimate and the 90 % CI for the geometric mean ratio (GMR) on the untransformed scale. […] All ANOVAs were performed using SAS software (SAS Institute Inc., Cary, NC, USA).
as §1

[4] = cited from earlier work
mutant FLT3 = conditions: in vitro; read-out: half-maximal inhibitory concentration (IC50), mutant FLT3; cited from earlier work
[5] = Placebo + midostaurin arm, rifampicin study
[6] = plasma, Ketoconazole + midostaurin arm, n = 18
[7] = plasma, Placebo + midostaurin arm, ketoconazole study, n = 18

In the case of `CN(C(=O)c1ccccc1)[C@@H]1C[C@H]2O[C@@](C)([C@@H]1O)n1c3ccccc3c3c4c(c5c6ccccc6n2c5c31)C(=O)NC4` [CGP62221], the “bound to AAG” value [1] is given as 88–98%, the pIC50 (CYP3A4/5) is given as over 6.00 and the “decrease in exposure (AUClast) in midostaurin + rifampicin arm” value ([2]; compared with midostaurin alone) is given as 13.0 fold. The “AUC0–inf, adjusted geometric mean” value ([2]; Placebo + midostaurin arm (midostaurin 50 mg once), rifampicin study) was 35,146.80 ng h/mL, the “AUC0–last, adjusted geometric mean” value [2, 5] was 32,266.80 ng h/mL and the “C max, adjusted geometric mean” value [2, 5] was 631.46 ng/mL. The “t 1/2, adjusted geometric mean” value [2, 5] was 33.74 h, the “t max, median” value [2, 5] was 3.00 h and the “AUC0–inf, adjusted geometric mean” value ([2]; Rifampicin + midostaurin arm (midostaurin 50 mg once, rifampicin 600 mg daily)) was 2,699.43 ng h/mL. The “AUC0–last, adjusted geometric mean” value ([2]; Rifampicin + midostaurin arm) was 2,501.48 ng h/mL, the “C max, adjusted geometric mean” value ([2]; Rifampicin + midostaurin arm) was 396.25 ng/mL and the “t 1/2, adjusted geometric mean” value ([2]; Rifampicin + midostaurin arm) was 7.02 h. For the same molecule, the “t max, median” value ([2]; Rifampicin + midostaurin arm) was 1.50 h, the “elimination t 1/2 in the presence of ketoconazole” value ([3]; compared with placebo) was “prolonged” and the “t max, Hodges–Lehmann estimate of median difference (90 % distribution-free CI)” value ([3]; ketoconazole + midostaurin vs placebo + midostaurin) was 114.0 (92.8, 116.0) h. For the same molecule, the “AUC0–inf, adjusted geometric mean” value ([3]; plasma, Ketoconazole + midostaurin arm (midostaurin 50 mg once, ketoconazole 400 mg daily), n = 18) was 110,234.87 ng h/mL, the “AUC0–last, adjusted geometric mean” value [3, 6] was 27,237.87 ng h/mL and the “C max, adjusted geometric mean” value [3, 6] was 329.76 ng/mL. For the same molecule, the “t 1/2, adjusted geometric mean” value ([3]; plasma, Ketoconazole + midostaurin arm, for 4 volunteers only (flat terminal phase in others)) was 142.01^b h, the “AUC0–inf, adjusted geometric mean” value ([3]; plasma, Placebo + midostaurin arm (midostaurin 50 mg once), ketoconazole study, n = 18) was 31,366.63 ng h/mL and the “AUC0–last, adjusted geometric mean” value [3, 7] was 27,414.44 ng h/mL. For the same molecule, the “C max, adjusted geometric mean” value [3, 7] was 586.78 ng/mL, the “t 1/2, adjusted geometric mean” value [3, 7] was 36.60 h and the “t max, median” value [3, 7] was 3.51 h. For the same molecule, the “major pathway for elimination” value [4] was “Fecal excretion” and the pIC50 (mutant FLT3) was 7.59.

— article PMC3834177 (Cancer Chemotherapy and Pharmacology, 2013)
